Reference: US10508120B2, “TYK2 inhibitors and uses thereof” (Nimbus Lakshmi, Inc., priority 2017, dated 2019)
pKd: −log10 of the molar value. Where two headings read alike, the source gives them in different places.

Key:
JAK2 kinase domain (JH1) = JAK2 kinase domain (JH1) (Homo sapiens (Human), UniProt O60674); assay: JAK2 Radioactive Kinase Assay; assay type: biochemical; conditions: for inhibition at 10 µM: read-out: JAK2 JH1% Inhibition @ 10 μM
Outline: (§1)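 Compounds were tested at a single concentration of 10 μM in a radiometric kinase format against each isolated kinase domain. Activity is reported as percent inhibition at that concentration.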

Tyk2 kinase domain (DH1) = Tyk2 kinase domain (DH1) (Homo sapiens (Human), UniProt P29597); assay: Tyk2 Radioactive Kinase Assay; assay type: biochemical; conditions: for inhibition at 10 µM: read-out: Tyk2 JH1% Inhibition @ 10 μM
Outline: as §1

[1] = target: human TYK2 (JH2domain-pseudokinase) (Homo sapiens (Human), UniProt P29597); assay: TYK2 JH2 Domain Binding Assay (KINOMEscan)
Outline: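 Competition binding of an NFkB-DBD fusion of human TYK2 JH2 (G556–D888), expressed in HEK293 and used as crude extract at <0.1 nM, against immobilized ligand beads; 1 h at room temperature in PBS/Tween/DTT/BSA buffer, 0.9% DMSO.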

Sequence of Tyk2 kinase domain (DH1) (P29597 897-1176): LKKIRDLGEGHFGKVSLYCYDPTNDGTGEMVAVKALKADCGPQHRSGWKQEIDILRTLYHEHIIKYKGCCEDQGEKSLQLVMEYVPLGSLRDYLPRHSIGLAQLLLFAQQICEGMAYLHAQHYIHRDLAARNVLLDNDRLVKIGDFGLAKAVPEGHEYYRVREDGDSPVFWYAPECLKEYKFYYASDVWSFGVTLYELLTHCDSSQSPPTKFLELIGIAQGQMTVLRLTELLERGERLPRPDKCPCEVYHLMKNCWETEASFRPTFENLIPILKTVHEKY
Sequence of JAK2 kinase domain (JH1) (O60674 849-1124): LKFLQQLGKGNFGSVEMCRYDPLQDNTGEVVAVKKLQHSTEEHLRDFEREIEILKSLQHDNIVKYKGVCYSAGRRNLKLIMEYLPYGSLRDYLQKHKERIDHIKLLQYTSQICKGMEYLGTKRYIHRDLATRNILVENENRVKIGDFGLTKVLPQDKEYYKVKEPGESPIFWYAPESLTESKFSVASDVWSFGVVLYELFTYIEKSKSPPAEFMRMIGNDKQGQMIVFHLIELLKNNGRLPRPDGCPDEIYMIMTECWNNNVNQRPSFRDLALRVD
Sequence of human TYK2 (JH2domain-pseudokinase) (P29597 556-888): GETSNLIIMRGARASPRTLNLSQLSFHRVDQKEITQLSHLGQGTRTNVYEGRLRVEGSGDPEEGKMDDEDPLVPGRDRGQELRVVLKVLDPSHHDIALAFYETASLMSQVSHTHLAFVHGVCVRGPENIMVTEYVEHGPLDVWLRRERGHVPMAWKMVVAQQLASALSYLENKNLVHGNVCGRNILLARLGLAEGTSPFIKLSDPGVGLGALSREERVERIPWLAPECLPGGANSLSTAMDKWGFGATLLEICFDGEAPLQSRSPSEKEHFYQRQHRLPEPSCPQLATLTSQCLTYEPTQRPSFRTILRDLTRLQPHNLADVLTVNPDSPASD

Row | inhibition at 10 µM (JAK2 kinase domain (JH1); compound at 10 μM, ATP 10 μM) [%] | inhibition at 10 µM (Tyk2 kinase domain (DH1); compound at 10 μM, ATP 10 μM) [%] | pKd [1] | Structure (SMILES) | further results
1 | < 50 | < 50 | > 9.70 | CNc1cc(Nc2cccc([C@@H]3CCCOC3)n2)nc2c(C(=O)N[C@@H]3CC[C@@H]3O)cnn12 [I-605] | 
2 | < 50 | < 50 | 9.00 to 9.70 | CNc1cc(Nc2cccn([C@H]3CC[C@H](OC)CC3)c2=O)nc2c(C(=O)N[C@H]3COC[C@H]3O)cnn12 [I-746] | 
3 | < 50 | < 50 | 9.00 to 9.70 | Cc1cc(-n2cccc(Nc3cc(N)n4ncc(C(N)=O)c4n3)c2=O)no1 [I-64] | 
4 |  |  | > 9.70 | CNc1cc(-c2cn(C3CCOCC3)c3ncccc23)nc2c(C(=O)N[C@H]3CC[C@H]3O)cnn12 [I-1113] | inhibition at 10 µM (JAK2 kinase domain (JH1); 10 μM compound, 10 μM ATP): < 50%; inhibition at 10 µM (Tyk2 kinase domain (DH1); 10 μM compound, 10 μM ATP): < 50%
5 | < 50 | < 50 | 9.00 to 9.70 | CNc1cc(Nc2cccn(-c3nccs3)c2=O)nc2c(C(N)=O)cnn12 [I-15] | 
6 |  |  | 8.00 to 9.00 | CNc1cc(Nc2cccn(C3CCN(C)CC3)c2=O)nc2c(C(=O)N[C@@H]3CC[C@@H]3O)cnn12 [I-690] | JAK2 JH1% Inhibition @ 10 μM (JAK2 kinase domain (JH1); compound at 10 μM, ATP 10 μM): A (percent inhibition at 10 μM lower than 50); Tyk2 JH1% Inhibition @ 10 μM (Tyk2 kinase domain (DH1); compound at 10 μM, ATP 10 μM): A (percent inhibition at 10 μM lower than 50)
7 | < 50 | < 50 | > 9.70 | CNc1cc(Nc2cccc([C@H]3CCCOC3)n2)nc2c(C(=O)NCC(C)(C)CO)cnn12 [I-579] | 
8 | < 50 | < 50 | 9.00 to 9.70 | CNc1cc(Nc2cccnc2OC2CC2)nc2c(C(=O)N[C@@H]3CC[C@H]3O)cnn12 [I-398] | 
9 |  |  | > 9.70 | CNc1cc(Nc2cccn([C@H]3C[C@@H]3F)c2=O)nc2c(C(=O)NC3CC3)cnn12 [I-867] | inhibition at 10 µM (JAK2 kinase domain (JH1); 10 μM compound, 10 μM ATP): < 50%; inhibition at 10 µM (Tyk2 kinase domain (DH1); 10 μM compound, 10 μM ATP): < 50%
10 |  |  | 9.00 to 9.70 | CNc1cc(Nc2cccn(-c3ccccn3)c2=O)nc2c(C(=O)N[C@@H]3CC[C@@H]3O)cnn12 [I-806] | JAK2 JH1% Inhibition @ 10 μM (JAK2 kinase domain (JH1); compound at 10 μM, ATP 10 μM): A (percent inhibition at 10 μM lower than 50); Tyk2 JH1% Inhibition @ 10 μM (Tyk2 kinase domain (DH1); compound at 10 μM, ATP 10 μM): A (percent inhibition at 10 μM lower than 50)
11 | < 50 | < 50 | > 9.70 | CNc1cc(Nc2cccn(-c3cccc(C(C)(C)O)n3)c2=O)nc2c(C(=O)NC3CC3)cnn12 [I-155] | 
12 | < 50 | < 50 | 8.00 to 9.00 | CNc1cc(-n2cc(N3CCN(C)CC3)c3ncccc32)nc2c(C(=O)NC3CC3)cnn12 [I-574] | 
13 | < 50 | < 50 | > 9.70 | CNc1cc(Nc2cccn([C@H]3CCN(C)C[C@H]3F)c2=O)nc2c(C(=O)NC3CC3)cnn12 [I-627] | 
14 | < 50 | < 50 | 8.00 to 9.00 | CNc1cc(Nc2cccn([C@@H]3CCCOC3)c2=O)nc2c(C(=O)N[C@H]3[C@@H]4COC[C@@H]43)cnn12 [I-650] | 
15 |  |  | 8.00 to 9.00 | CNc1cc(Nc2cccn([C@@H]3CCC[C@@H](O)C3)c2=O)nc2c(C(=O)N[C@H]3CC[C@@H]3OC)cnn12 [I-1129] | JAK2 JH1% Inhibition @ 10 μM (JAK2 kinase domain (JH1); 10 μM compound, 10 μM ATP): A (percent inhibition at 10 μM lower than 50); Tyk2 JH1% Inhibition @ 10 μM (Tyk2 kinase domain (DH1); 10 μM compound, 10 μM ATP): A (percent inhibition at 10 μM lower than 50)
16 | < 50 | < 50 | 8.00 to 9.00 | CNc1cc(Nc2cccn(-c3cc(C)on3)c2=O)nc2c(C(=O)NC3COC3)cnn12 [I-104] | 
17 |  |  | > 9.70 | CNc1cc(Nc2cccn([C@H]3CCCN(CCF)C3)c2=O)nc2c(C(=O)NC3CC3)cnn12 [I-880] | inhibition at 10 µM (JAK2 kinase domain (JH1); 10 μM compound, 10 μM ATP): < 50%; inhibition at 10 µM (Tyk2 kinase domain (DH1); 10 μM compound, 10 μM ATP): < 50%
18 |  |  | 8.00 to 9.00 | CNc1cc(Nc2cccn(-c3ncc(C)s3)c2=O)nc2c(C(=O)N[C@H]3CC[C@@H]3O)cnn12 [I-1071] | inhibition at 10 µM (JAK2 kinase domain (JH1); 10 μM compound, 10 μM ATP): < 50%; inhibition at 10 µM (Tyk2 kinase domain (DH1); 10 μM compound, 10 μM ATP): < 50%
19 | < 50 | < 50 | > 9.70 | CNc1cc(Nc2cccnc2OC)nc2c(C(=O)N[C@H]3COC[C@H]3O)cnn12 [I-615] | 
20 |  |  | > 9.70 | CNc1cc(Nc2cccn(-c3cccc(F)c3)c2=O)nc2c(C(=O)N[C@@H]3CC[C@H]3O)cnn12 [I-1023] | inhibition at 10 µM (JAK2 kinase domain (JH1); 10 μM compound, 10 μM ATP): < 50%; inhibition at 10 µM (Tyk2 kinase domain (DH1); 10 μM compound, 10 μM ATP): < 50%
21 | < 50 | < 50 | > 9.70 | CNc1cc(Nc2cccnc2OC)nc2c(C(=O)N[C@@H]3CCC[C@@H](O)C3)cnn12 (stereo in doubt) [I-459, N-(3-hydroxycyclohexyl)-5-((2-methoxypyridin-3-yl)amino)-7-(methylamino)pyrazolo[1,5-a]pyrimidine-3-carboxamide] | 

Row | Structure (SMILES) | inhibition at 10 µM (JAK2 kinase domain (JH1); compound at 10 μM, ATP 10 μM) [%] | inhibition at 10 µM (Tyk2 kinase domain (DH1); compound at 10 μM, ATP 10 μM) [%] | pKd [1] | further results
22 | CNc1cc(Nc2cccn([C@H]3CCCC[C@H]3OC)c2=O)nc2c(C(=O)NCC3(CO)CC3)cnn12 [I-1047] |  |  | 9.00 to 9.70 | inhibition at 10 µM (JAK2 kinase domain (JH1); 10 μM compound, 10 μM ATP): < 50%; inhibition at 10 µM (Tyk2 kinase domain (DH1); 10 μM compound, 10 μM ATP): < 50%
